Results published in patent US20120021061A1, “MEDICAL AND NUTRITIONAL FORMULATIONS” (Comvita New Zealand Limited, priority 2008, published 2012).
Like-named read-outs stand apart in the source and are kept apart here.

What was measured:
IL-1β = test: Cytokine production by peripheral blood mononuclear cells, IL-1β; type: cell-based; conditions: human PBMC supernatants; FIG. 9
Protocol: (§1) An experiment was completed using three honey samples, the first being a high UMF manuka honey containing 1002 mg of MGO/kg, a moderate UMF manuka honey containing 649 mg of MGO/kg, a clover honey containing minimal MGO/kg and pure MGO alone. Results were compared against a negative control with cells alone […] and PHA as the inflammatory agent. Human blood was collected from six donors and peripheral blood mononuclear cells were separated by Ficoll gradients. Donor bloods were processed in pairs. The experiments tested the effect of the honey on the blood cells and the levels of cytokines produced. Supernatents from cells incubated with varying honey and MGO concentrations were collected and assayed for a number of pro and anti-inflammatory cytokines. Cytokines are molecules secreted by cells that are involved in communication between cells. Cytokines bind to specific receptors on cell surfaces and the signals then created can alter cellular functions. The cytokines tested in this study were IL-1β, IL-10 and […]. Cytokines were measured using a biorad, bioplex suspension array system.

IL-10 = test: Cytokine production by peripheral blood mononuclear cells, IL-10; type: cell-based; conditions: human PBMC supernatants; FIG. 10
Protocol: as §1

TNFα = test: Cytokine production by peripheral blood mononuclear cells, TNFα; type: cell-based; conditions: human PBMC supernatants; FIG. 11
Protocol: as §1

H. pylori SS1 = test: Viability of H. pylori SS1 after overnight incubation with MGO or honey (drop plate CFU); type: cell-based, Helicobacter pylori; conditions: for Helicobacter pylori viable count: catalase treated
Protocol: The H. pylori SS1 strain was obtained and initially cultured on Campylobacter Selective Agar (CSA) plates and incubated at 37° C. under microaerobic conditions (10% Co2) for 48 h. Following culture, the isolates were checked for purity (microscopy, catalase and oxidase), after which SS1 was cultured in Brucella broth supplemented with 5% Fetal Bovine Serum and 1% Vitox under microaerobic conditions with shaking for 24 h. The effect of 1) methylglyoxal (MGO), density 1.17 g/ml, 2) Honey M1: Manuka honey O50336-10 (MGO content=0.593 mg/g), 3) Honey M2=Honey M1 adjusted to a pH of 9.0, 4) Honey M3=Comvita Wound Care Honey 18+ (MGO content=0.6 mg/g) and 5) Honey C: Control honey (100% Australian Honey, Leabrook Farms, Australia) on H. pylori was determined. MGO at concentrations of 1, 5, 10, 20, 50 and 100 mg/L were prepared by dissolving an appropriate amount of MGO in Brucella broth. To ensure an equivalent concentration of MGO in the Manuka honeys, the appropriate weight of honey (Honey M1 and Honey M2=6.75 g), (Honey M3=6.67 g) was measured out, after which an equal volume of Brucella broth at 37° C. was added to the honey and this was vortexed to aid mixing. Following vortexing, an equal volume of catalase solution (2 mg/ml) prepared from bovine liver was added to negate the effect of hydrogen peroxide, and this was again vortexed to aid mixing. The total volume was then adjusted to 40 ml using Brucella broth. […] The control Honey C was prepared in a similar fashion starting with an initial weight=6.71 g). To avoid contamination with lactic acid bacteria that are commonly present in honey (e.g. Leuconostoc citreum and Lactococcus garvieae), preparations of honey M1 and Honey C were filter sterilized through 0.22 µm pore size membrane filters prior to use in the in vitro assay. The Comvita wound care 18+ honey was not filter sterilised as this product undergoes sterilisation on manufacture. […] H. pylori were grown in broth culture overnight as described above. Following incubation, cells were washed once and resuspended in Brucella broth to an Optical Density (OD) 600 1.5. Ten pl of the microbial suspension was then inoculated into wells of a 96-well microtiter plate containing 200 pl of broth, supplemented with a range of concentrations of MGO (0, 1, 5, 10, 20, 50 and 100 mg/L), or an equivalent concentration of MGO contained in the Manuka honeys, or the same percentage of control honey. Each of the concentrations of MGO, MGO in the Manuka honeys and the control honey were tested in triplicate. Following addition of H. pylori to the microtiter plates, these were incubated under microaerobic conditions (10% CO2) overnight. Following incubation the number of viable colonies in the wells was assessed using the drop plate method. Following incubation the number of visible colonies on CSA agar plates were counted and the colony forming units (CFU)/ml calculated.

Helicobacter pylori = Helicobacter pylori infected mice fed honey; type: in vivo; conditions: honey 2.8 g/kg body weight, MGO given in sugar solution
Excerpt: An experiment was completed feeding manuka honey with a UMF 22 to Helicobacter pylori infected mice at a rate of 2.8 g/kg body weight honey.

neutrophils = test: Neutrophil superoxide production with honeys of increasing MGO; type: cell-based; conditions: increasing MGO concentrations in honey
Excerpt: The inventors conducted an experiment to determine whether increasing MGO concentrations also increase the ability of honey with the MGO to prevent or slow neutrophils from making superoxides (a part of the inflammatory response).

E. coli O157/Nissle = type: cell-based; conditions: no honey

CC(=O)C=O [MGO, methylglyoxal]
IL-1β production (IL-1β): no effect | IL-10 values (IL-10): not affected | TNFα production (TNFα): no effect | MGO concentration at which CFU of H. pylori SS1 were reduced (H. pylori SS1; MGO alone or equivalent MGO in honey): ≥ 20 mg/L | Helicobacter pylori viable count (H. pylori SS1; MGO conc 20 mg/L, honey conc 4.2%): 7.1×10^6 CFU/ml | Helicobacter pylori viable count (H. pylori SS1; MGO conc 50 mg/L, honey conc 8.4%): 7.0×10^5 CFU/ml | Helicobacter pylori viable count (H. pylori SS1; MGO conc 100 mg/L, honey conc 16.7%): 1.1×10^4 CFU/ml | H. pylori bacteria numbers in infected mice (Helicobacter pylori): does not reduce bacteria numbers alone | Ability to prevent or slow neutrophils from making superoxides (neutrophils): made no difference at all

Catalase
Mean inhibition zone (n = 3) (E. coli O157/Nissle; catalase 1000 U/mL alone): 0.0 mm

OO [Peroxide, hydrogen peroxide]
Mean inhibition zone (n = 3) (E. coli O157/Nissle; peroxide 36.7 mM + catalase 1000 U/mL): 0.0 mm | Mean inhibition zone (n = 3) (E. coli O157/Nissle; peroxide 36.7 mM alone): 3.3 mm

CC(=O)C=O [MGO (pH 9), methylglyoxal]
Helicobacter pylori viable count (H. pylori SS1; MGO conc 50 mg/L, honey conc 8.4%, listed as MGO at pH 9): 6.9×10^6 CFU/ml | Helicobacter pylori viable count (H. pylori SS1; MGO conc 100 mg/L, honey conc 16.7%, listed as MGO at pH 9): 1.7×10^6 CFU/ml
